The source made the active and inactive calls. The rule behind the calls is not given here.
How the values were obtained:
HeLa = test: Growth inhibition of human HeLa cells up to 10 uM after 72 hrs by MTT assay; assay type: functional, cell-based
HL-60 = test: Growth inhibition of human HL60 cells up to 10 uM after 72 hrs by MTT assay; assay type: functional, cell-based
MCF7 = test: Growth inhibition of human MCF7 cells up to 10 uM after 72 hrs by MTT assay; assay type: functional, cell-based
Cathepsin D = Cathepsin D (Homo sapiens, UniProt P07339); test: Inhibition of human cathepsin D using GKPILFFRLK(DNP)-D-RNH2) labeled MCA as substrate preincubated for 10 mins followed by substrate addition measured after 1 to 2 hrs by fluorometric method
Chain of Cathepsin D (P07339 65-162 limits assumed): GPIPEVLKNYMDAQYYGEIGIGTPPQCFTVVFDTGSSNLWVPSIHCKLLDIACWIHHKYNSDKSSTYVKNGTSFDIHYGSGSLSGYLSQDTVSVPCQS
Chain of Cathepsin D (P07339 169-412 limits assumed): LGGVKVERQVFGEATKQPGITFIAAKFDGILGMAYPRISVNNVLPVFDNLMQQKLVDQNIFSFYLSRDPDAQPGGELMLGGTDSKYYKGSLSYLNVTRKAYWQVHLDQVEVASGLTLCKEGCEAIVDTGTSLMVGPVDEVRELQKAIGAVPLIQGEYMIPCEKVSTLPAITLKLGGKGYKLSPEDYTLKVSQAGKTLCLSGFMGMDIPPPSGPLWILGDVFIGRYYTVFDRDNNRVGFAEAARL

Row | Structure (SMILES) | growth inhibition (GI) (HeLa) | growth inhibition (GI) (HL-60) | growth inhibition (GI) (MCF7) | IC50 (Cathepsin D)
1 | CC[C@H](C)[C@H](NC(=O)C[C@H](O)[C@H](CC(C)C)NC(=O)[C@H](OC(=O)[C@@H](O)C(C)C)C(C)C)C(=O)N[C@@H](C)C(=O)N(C)[C@H](Cc1ccccc1)C(=O)N1CCC[C@H]1C(=O)OC | inactive | inactive | inactive | 380 nM
2 | CC[C@H](C)[C@H](NC(=O)[C@H](OC(=O)[C@@H](O)C(C)C)[C@@H](C)CC)C(=O)NCC(=O)N(C)[C@H](Cc1ccccc1)C(=O)N1CCC[C@H]1C(=O)OC | inactive | inactive | inactive | > 10000 nM
3 | CC[C@H](C)[C@H](NC(=O)C[C@H](O)[C@H](CC(C)C)NC(=O)[C@H](OC(=O)[C@@H](O)C(C)C)[C@@H](C)CC)C(=O)N[C@@H](C)C(=O)N(C)[C@H](Cc1ccccc1)C(=O)N1CCC[C@H]1C(=O)OC | inactive | inactive | inactive | 270 nM
